Results taken from patent publication US20220194914A1, “METHODS AND SYSTEMS FOR PRODUCTION OF FURFURAL” (SHELL OIL COMPANY, priority 2020, published 2022).
Like-named read-outs stand apart in the source and are kept apart here.

Key:
[1] = octanol-water, cited from earlier work
[2] = cited from earlier work; for Water solubility g/L (20° C.) / water solubility: 20° C.
[3] = Partitioning of components between the aqueous and non-aqueous phase of the biphasic solution (Example 4); type: physicochemical; details: aqueous pH 1 (H2SO4), calculated ionic strength 3.0 M (Na2SO4) / MN, 1:1 volume
From the text: The non-aqueous phase solution contains MN, PBA, and furfural. The biphasic solution was mixed to allow adequate contact amongst the various components, and the biphasic solution was subsequently allowed to settle into the two phases: aqueous and non-aqueous.

Molecule	LogP ([1]; Table 2 solvents)	LogP ([1]; Table 1 boronic acids)	Water solubility g/L (20° C.) ([2]; Table 1 boronic acids)	further results
CCCCCCCCO [1-octanol]	3.10	–	–	Water solubility g/L (20° C.) ([2]; Table 2 solvents): 0.3 g/L
Cc1cccc(C)c1O [2,6 xylenol]	2.40	–	–	–
OB(O)c1ccc2ccccc2c1 [2-naphthylboronic acid]	–	2.82	0.3 g/L	LogP [1]: 2.82; water solubility [2]: 0.03 wt %
CCCCc1ccc(B(O)O)cc1 [4-butylphenyl boronic acid]	–	3.64	Insoluble	–
CCc1ccc(B(O)O)cc1 [4-ethylphenyl boronic acid]	–	2.58	–	–
CC(C)(C)c1ccc(B(O)O)cc1 [4-tert-Butylphenyl boronic acid]	–	3.28	Insoluble	–
CCc1ccc(O)cc1 [4Et-phenol]	2.47	–	–	Water solubility g/L (20° C.) ([2]; Table 2 solvents): 6.1 g/L
CC(C)CB(O)O [(2-methylpropyl) boronic acid]	–	0.6	33 g/L	–
c1ccc2occc2c1 [Benzofuran]	2.67	–	–	Water solubility g/L (20° C.) ([2]; Table 2 solvents): insoluble
Cc1cccc(O)c1 [Cresol (m)]	1.94	–	–	–
OB(O)C1CCCCC1 [Cyclohexyl boronic acid]	–	1.90	25 g/L	–
CC(C)OC(C)C [Diisopropyl ether]	2.03	–	–	Water solubility g/L (20° C.) ([2]; Table 2 solvents): 1.7 g/L
CCc1ccccc1 [Ethylbenzene]	2.96	–	–	Water solubility g/L (20° C.) ([2]; Table 2 solvents): 0.15 g/L
O=Cc1ccco1 [Furfural]	–	–	–	mol % of the component in Non-aqueous Phase with respect to the biphasic solution [3]: (88 mol %); molar concentration in Aqueous Phase [3]: 46 mM; molar concentration in Non-aqueous Phase [3]: 352 mM; mol % of the component in Non-aqueous Phase with respect to the biphasic solution ([3]; listed as furfural): 88 mol %
OB(O)CCc1ccccc1 [Phenethyl boronic acid]	–	1.20	1.8 g/L	–
O=S(=O)([O-])[O-].[Na+].[Na+] [Salt (based on 2Na), Na2SO4]	–	–	–	mol % of the component in Aqueous Phase with respect to the biphasic solution [3]: (>99 mol %); mol % of the component in Non-aqueous Phase with respect to the biphasic solution [3]: (0.2 mol %); molar concentration in Aqueous Phase [3]: 1M; molar concentration in Non-aqueous Phase [3]: 2 mM; mol % of the component in Aqueous Phase with respect to the biphasic solution ([3]; listed as Na2SO4): over 99 mol %
COc1ccccc1 [anisole]	–	–	–	Water solubility g/L (20° C.) ([2]; Table 2 solvents): 1.5 g/L
CCCCB(O)O [butylboronic acid]	–	1.43	25 g/L	–
COc1ccccc1O [guaiacol]	0.97	–	–	Water solubility g/L ([2]; 25° C., Table 2 solvents): 18.7 (25° C.) g/L
CCCCCCC [heptane]	4.47	–	–	Water solubility g/L (20° C.) ([2]; Table 2 solvents): 0.003 g/L
Cc1cccc(B(O)O)c1 [m-tolylboronic acid]	–	2.05	25 g/L	–
OB(O)c1cccc2ccccc12 [naphthalene-1-boronic acid]	–	–	0.3 g/L	–
Cc1ccccc1B(O)O [o-tolylboronic acid]	–	2.05	Slightly	–
CCCCCCCCB(O)O [octylboronic acid]	–	3.56	Insoluble	LogP [1]: 3.56; water solubility [2]: water-insoluble
OB(O)c1ccccc1 [phenylboronic acid]	–	1.59	10 g/L	molar concentration in Aqueous Phase [3]: 129 mM; molar concentration in Non-aqueous Phase [3]: 566 mM; water solubility [2]: 1 wt %
Methylnaphtalene [MN]	–	–	–	molar concentration in Aqueous Phase [3]: 2 mM; molar concentration in Non-aqueous Phase [3]: 7.03M
